In ChEMBL document CHEMBL6127038, “How many organic small molecules might be used to treat COVID-19? From natural products to synthetic agents” (Eur J Med Chem, 2024):
pIC50: −log10 of the molar value.

System: SARS-CoV-2
Experiment: Antiviral activity against SARS CoV-2 infected in HEK293 cells overexpressing hACE2 assessed as inhibition of viral infection
Assay type: functional, organism-based
Settings: Severe acute respiratory syndrome coronavirus 2, HEK293

For `NC(=O)CC[C@H](NC(=O)[C@H](Cc1ccc(O)cc1)NC(=O)[C@H](Cc1ccccc1)N1CCN(C(=O)[C@H](CC(=O)O)NC(=O)[C@@H](N)CCC(=O)O)CC1=O)C(N)=O`, the pIC50 was 4.82.
